Results taken from patent publication US10179173B2, “Semi-solid delivery systems” (Regents of the University of Minnesota, priority 2012, dated 2019).

What was measured:
[1] = cited from earlier work
[2] = In vitro drug release from drug loaded semi-solid polymer in buffered saline; format: physicochemical
Protocol: A certain amount of drugs (Ibuprofen or BSA) were grinded into fine particles and then mixed with certain amount of polymer in a glass vial. […] At certain time points, the buffer was removed for analysis and replaced with fresh buffer. The amount of Ibu released in the medium was measured by UV spectroscopy (Beckman Coulter, DU 640B spectrophotometer) for absorbance at 263 nm.

[3] = Solubility of drugs in water and in the semi-solid polymer; format: physicochemical; settings: PCL-OE-1
[4] = mouse, in vivo, sc
Protocol: In vivo biocompatibility of the polymer was evaluated by subcutaneous injection into mice through 18-gauge needles; 50 mg of polymer was injected for each mouse. At certain time point, mouse was sacrificed and the tissue of the injection site harvested, sectioned, and stained with H&E.

Compound | solubility in water [1] | duration of sustained release of Ibu from the semi-solid polymer ([2]; 5 wt % in PCL-OE-1, pH 7.4 and pH 5.0) | effect of pH on sustained release of Ibu ([2]; pH 7.4 versus pH 5.0) | solubility in the semi-solid polymer [3] | tissue damage or inflammatory response at injection site (H&E) [4]
CC(C)Cc1ccc(C(C)C(=O)O)cc1 (centres unmarked) [Ibu, Ibuprofen] | poor solubility in water | at least three | not affected by pH | excellent solubility | –
poly(ortho ester caprolactone) [PCL-OE-1] | – | – | – | – | No visible tissue damage or inflammatory response
